The record followed here is PubChem BioAssay (NCI).

The structures appear in SMILES notation.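 A five-concentration, 48-hour dose response in 96-well plates underlies each endpoint, interpolated linearly between surrounding concentrations. Definition used: TGI = concentration required for complete inhibition of growth.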

Among the test systems are HCC-2998 colon; SN12C renal; SK-MEL-28 melanoma; CAKI-1 renal; RXF 393 renal; UACC-62 melanoma; K-562 leukemia; UO-31 renal; SF-539 CNS; TK-10 renal; BT-549 breast.
Assay in all cases: DTP human tumour cell line panel, 48 h

For `O=[N+]([O-])/C(C(Cl)=C(Cl)Cl)=C1\NCCO1`, the TGI in the experiment with HCC-2998 colon, with SN12C renal, in the experiment with SK-MEL-28 melanoma, in the experiment with CAKI-1 renal, in the experiment with RXF 393 renal and in the experiment on UACC-62 melanoma was greater than 100 µM each time. Moreover, the concentration for total growth inhibition (TGI) in the experiment on K-562 leukemia, with UO-31 renal, with SF-539 CNS and with TK-10 renal was greater than 100 µM each time.

For `CCC1C(c2cccc(OC)c2O)c2cc3c(cc2OC1N1CCCC1)OCO3` (centres undefined), the total growth inhibition concentration (TGI) (commonly the concentration at which net growth stops) in the experiment on HCC-2998 colon amounted to 21.9 µM; in the experiment with SN12C renal, 38.3 µM; with SK-MEL-28 melanoma it was 43.4 µM; in the experiment with UACC-62 melanoma, 65.9 µM; in the experiment on K-562 leukemia, 38.7 µM; in the experiment on UO-31 renal, 39.5 µM. Besides, the values for the TGI in the experiment with SF-539 CNS and in the experiment with TK-10 renal were 27 µM and 82.1 µM, respectively.

Turning to `CC1(C)N=C(C(N)=O)c2ncn(CCO)c2N1`, the TGI with HCC-2998 colon, in the experiment with SN12C renal, with SK-MEL-28 melanoma, in the experiment on CAKI-1 renal, with RXF 393 renal and with UACC-62 melanoma was greater than 100 µM throughout. For the same molecule, the TGI with K-562 leukemia, in the experiment with SF-539 CNS and in the experiment on TK-10 renal was greater than 100 µM in each case.

As for `COc1ccc(S(=O)(=O)O)cc1-n1nc(C(=O)Nc2ccccc2)n[n+]1-c1cc(S(=O)(=O)[O-])ccc1OC`, the total growth inhibition concentration (TGI) in the experiment with HCC-2998 colon, in the experiment with SN12C renal, in the experiment on SK-MEL-28 melanoma, with CAKI-1 renal, in the experiment on RXF 393 renal and in the experiment with UACC-62 melanoma was greater than 100 µM each time. The TGI in the experiment with K-562 leukemia, in the experiment with UO-31 renal, in the experiment on SF-539 CNS and with TK-10 renal was greater than 100 µM in each case.

For the molecule `CCOc1ccc(/C=C(\Cl)c2ccc(OC)c(OC)c2)cc1`, the TGI in the experiment with HCC-2998 colon is greater than 100 µM; in the experiment on SN12C renal, greater than 100 µM; in the experiment on SK-MEL-28 melanoma, greater than 100 µM; in the experiment on RXF 393 renal, 65.5 µM; in the experiment on UACC-62 melanoma, greater than 100 µM; with K-562 leukemia, greater than 100 µM. Besides, the TGI with UO-31 renal and with SF-539 CNS was greater than 100 µM each time.

In the case of `CCCCc1c(C(=O)OC(C)(C)C)cc(C#Cc2cc(C(=O)OC(C)(C)C)c(CCCC)c(C(=O)OC(C)(C)C)c2)cc1C(=O)OC(C)(C)C`, the TGI in the experiment on HCC-2998 colon, in the experiment on SN12C renal, in the experiment with SK-MEL-28 melanoma, in the experiment with CAKI-1 renal, with UACC-62 melanoma and with UO-31 renal was greater than 100 µM each time. The concentration for total growth inhibition (TGI) in the experiment with BT-549 breast and with TK-10 renal was greater than 100 µM throughout.

In the case of `O=C1CSc2nc3ccccc3n2/C=N\N1`, the TGI with HCC-2998 colon, in the experiment on SN12C renal, in the experiment on SK-MEL-28 melanoma, in the experiment on CAKI-1 renal, in the experiment on RXF 393 renal and in the experiment on UACC-62 melanoma was greater than 100 µM in each case. Also, the TGI in the experiment on K-562 leukemia, with UO-31 renal and in the experiment with TK-10 renal was greater than 100 µM in each case.

Take `COC(=O)C(C)(N=Cc1ccccc1)c1ccccc1` (centres undefined): the TGI in the experiment on HCC-2998 colon, in the experiment on SN12C renal, in the experiment with SK-MEL-28 melanoma, in the experiment with CAKI-1 renal, in the experiment with RXF 393 renal and in the experiment on UACC-62 melanoma was greater than 100 µM in each case. The TGI in the experiment with K-562 leukemia, with UO-31 renal, in the experiment with SF-539 CNS and with TK-10 renal was greater than 100 µM in each case.

On to `O=C(CC/C=C(/CS(=O)(=O)c1ccccc1)S(=O)(=O)c1ccccc1)c1ccccc1`, for which the TGI in the experiment on HCC-2998 colon, with SN12C renal, with SK-MEL-28 melanoma, in the experiment with RXF 393 renal, in the experiment on UACC-62 melanoma and in the experiment on K-562 leukemia was greater than 100 µM each time. The TGI in the experiment on UO-31 renal, with SF-539 CNS and in the experiment with TK-10 renal was greater than 100 µM in each case.

For `CC(C)SC(C)(NC(=O)C1C(C)(C)CCC1(C)C)C(=O)O` (centres undefined), the TGI in the experiment with HCC-2998 colon, in the experiment on SN12C renal, with SK-MEL-28 melanoma, in the experiment on K-562 leukemia, in the experiment on UO-31 renal and in the experiment with SF-539 CNS was greater than 100 µM throughout. This molecule displayed a TGI in the experiment with TK-10 renal greater than 100 µM.

On to `O=C(/C=C/c1cccc(Br)c1)c1cccs1`, for which the TGI in the experiment with HCC-2998 colon was 61.3 µM; in the experiment with SN12C renal, 31.1 µM; in the experiment on SK-MEL-28 melanoma, 32.9 µM; with CAKI-1 renal it was 32.6 µM; in the experiment with UACC-62 melanoma it was 32.7 µM; in the experiment with K-562 leukemia, 16.6 µM. The concentration for total growth inhibition (TGI) in the experiment on UO-31 renal stood at 25.7 µM; with SF-539 CNS, 31.9 µM; in the experiment with TK-10 renal, 31.5 µM.

With `O=C(O)CCCCCOc1cccnc1/C=N/NC1=NCCN1`, the total growth inhibition concentration (TGI) in the experiment on HCC-2998 colon, in the experiment on SN12C renal, in the experiment on SK-MEL-28 melanoma, in the experiment on CAKI-1 renal, in the experiment on RXF 393 renal and in the experiment on UACC-62 melanoma was greater than 100 µM each time. The concentration for total growth inhibition (TGI) in the experiment with K-562 leukemia, in the experiment with UO-31 renal, in the experiment with SF-539 CNS and in the experiment with TK-10 renal was greater than 100 µM each time.

Consider `O=C1O/C(=C(\Br)c2cccc3ccccc23)c2ccccc21`, for which the concentration for total growth inhibition (TGI) in the experiment on HCC-2998 colon was greater than 100 µM; in the experiment with SN12C renal, 47.2 µM; in the experiment on SK-MEL-28 melanoma, greater than 50.2 µM; in the experiment with RXF 393 renal, greater than 62.8 µM; in the experiment with UACC-62 melanoma it was greater than 55.6 µM; with K-562 leukemia, greater than 68.4 µM. Besides, the results for the TGI in the experiment on UO-31 renal, in the experiment with SF-539 CNS and with TK-10 renal were greater than 56.1 µM, greater than 100 µM and greater than 51.2 µM, respectively.

As for `COC(=O)/C=C(\C)C(=O)N(C)c1ccccc1I`, the TGI with HCC-2998 colon, with SN12C renal, in the experiment with SK-MEL-28 melanoma, in the experiment with CAKI-1 renal, with RXF 393 renal and in the experiment on UACC-62 melanoma was greater than 100 µM each time. Further, the TGI in the experiment with K-562 leukemia and in the experiment on UO-31 renal was greater than 100 µM each time.
